Test results from the supplement of paper PMC10307832.

What was measured:
Assay in all cases: relative viability (nuclei count vs DMSO), 5 days (fraction); higher = more cells survive
Salubrinal + Pemetrexed = compound: O=C(/C=C/c1ccccc1)NC(NC(=S)Nc1cccc2cccnc12)C(Cl)(Cl)Cl [Salubrinal] + Nc1nc2[nH]cc(CCc3ccc(C(=O)N[C@@H](CCC(=O)O)C(=O)O)cc3)c2c(=O)[nH]1 [Pemetrexed] (partner 0.2 µM)
Outline: (§1)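 Nuclei were stained with Hoechst during a one-step fixation (final 0.05% Triton X-100, 1% formaldehyde, 1 ug/ml Hoechst) carried out 5 days after dosing, then counted on 4× images. The cells, lung cancer lines in 1536-well plates, had been dosed by pin tool the day after seeding with one drug alone or a fixed anchor-drug dose plus five library-drug doses (not always all listed) in √10 steps. Relative viability is the nuclei count in treated wells divided by that in vehicle wells, and each value is the median of duplicate plates.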

Salubrinal + Alpelisib = compound: O=C(/C=C/c1ccccc1)NC(NC(=S)Nc1cccc2cccnc12)C(Cl)(Cl)Cl [Salubrinal] + Cc1nc(NC(=O)N2CCC[C@H]2C(N)=O)sc1-c1ccnc(C(C)(C)C(F)(F)F)c1 [Alpelisib] (partner 2 µM)
Outline: as §1

[1] = compound: Cc1ccc2nc(NCCN)c3ncc(C)n3c2c1 + N=C(N)NC(=N)NCCc1ccccc1 [Phenformin] (partner 250 µM)
Outline: as §1

[2] = compound: Cc1ccc2nc(NCCN)c3ncc(C)n3c2c1 + CC1(C)CCC(c2ccc(Cl)cc2)=C(CN2CCN(c3ccc(C(=O)NS(=O)(=O)c4ccc(N[C@H](CCN5CCOCC5)CSc5ccccc5)c(S(=O)(=O)C(F)(F)F)c4)cc3)CC2)C1 [Navitoclax] (partner 0.5 µM)
Outline: as §1

UMC-11
relative viability (Salubrinal + Pemetrexed; first compound 0.08 µM): 0.766 | relative viability (Salubrinal + Pemetrexed; first compound 0.253 µM): 0.675 | relative viability (Salubrinal + Pemetrexed; first compound 0.8 µM): 0.968 | relative viability (Salubrinal + Pemetrexed; first compound 2.53 µM): 0.729 | relative viability (Salubrinal + Pemetrexed; first compound 8 µM): 0.726 | relative viability (Salubrinal + Alpelisib; first compound 0.08 µM): 1.29 | relative viability (Salubrinal + Alpelisib; first compound 0.253 µM): 0.782 | relative viability (Salubrinal + Alpelisib; first compound 0.8 µM): 1.11 | relative viability (Salubrinal + Alpelisib; first compound 2.53 µM): 0.963 | relative viability (Salubrinal + Alpelisib; first compound 8 µM): 0.89 | relative viability ([1]; first compound 0.04 µM): 0.352 | relative viability ([1]; first compound 0.1265 µM): 0.319 | relative viability ([1]; first compound 0.4 µM): 0.333 | relative viability ([1]; first compound 1.265 µM): 0.335 | relative viability ([1]; first compound 4 µM): 0.349 | relative viability ([2]; first compound 0.04 µM): 0.315 | relative viability ([2]; first compound 0.1265 µM): 0.342 | relative viability ([2]; first compound 0.4 µM): 0.33 | relative viability ([2]; first compound 1.265 µM): 0.324 | relative viability ([2]; first compound 4 µM): 0.365
